Measurements from patent US20220259234A1, “COT MODULATORS AND METHODS OF USE THEREOF” (Gilead Sciences, Inc., priority 2019, published 2022).
≈ marks a conversion by molar mass, not a printed value. Where two headings read alike, the source gives them in different places.

Columns and labels:
[1] = In vivo dog pharmacokinetics; conditions: beagle dogs; for AUC0-72 h of the named analyte in plasma: label = analyte measured
[2] = Solubility in FaSSIF and FeSSIF; type: physicochemical; conditions: thermodynamic from solid
Protocol: Solubility was determined at ambient temperature in buffered fasted-state simulated intestinal fluid (FaSSIF, pH 6.5) and buffered fed-state simulated intestinal fluid (FeSSIF, pH 5.0) prepared in-house using BioRelevant Simulated Intestinal Fluid (SIF) powder. Solids were added to FaSSIF or FeSSIF in 1.5-mL Eppendorf tubes, sonicated for 1 minute, then agitated for 2.5 hours in an Eppendorf ThermoMixer C. To determine concentration in solution, the suspensions were centrifuged for 10 min at 14,800 rpm and supernatants were diluted to a volume of 1 mL with 1:1 v/v acetonitrile:water. All diluted supernatants were analyzed by UPLC using a Waters Acquity UPLC with a PDA UV detector.

Human plasma stability = type: in vitro ADME; conditions: substrate 2 μM, read-out: Human Plasma T½
Protocol: (§1) Plasma stability assays were performed in human and dog. Duplicate sets were performed with a tecan liquid handler or with cluster tubes in a heat block. Generally, a substrate concentration of 2 μM was used. Plasma in sodium EDTA was provided by BioIVT as whole plasma with K2 EDA as anti-coagulent.

Dog plasma stability = type: in vitro ADME; conditions: substrate 2 μM, read-out: Dog Plasma T½
Protocol: as §1

[3] = oral powder in capsule, dosed Compound B 9.7 mg-eq/kg
[4] = fasted-state simulated intestinal fluid (FaSSIF), fassif, fasted-state simulated intestinal fluid pH 6.5, ambient temperature, read-out: FaSSIF (pH 6.5) solubility
[5] = fed-state simulated intestinal fluid (FeSSIF), fessif, fed-state simulated intestinal fluid pH 5.0, ambient temperature, read-out: FeSSIF (pH 5.0) solubility

Protocol for Dog GI S9 stability: (§2) GI S9 stability assays were performed. Generally, a substrate concentration of 2 μM was used, a protein concentration of 1.0 mg/mL intestinal S9 was used, and a reaction buffer of 1× phosphate buffered saline (PBS) was used. Intestinal S9 was provided by BioIVT (dog) or Xenotech (human). […] Plates were vortexed, and then centrifuged at 3000×G for 30 minutes. 150 μL of supernatant was transferred to new plates and 150 μL water was added. New plates were vortexed to mix.
(§3) Samples were analyzed with a Leap HTC Autosampler and a Dionex UltiMate 3000 HPLC system interfaced to a Thermo Q-Exactive mass spectrometer operation in positive ion electrospray mode. A Thermo Scientific Hypersil GOLD (1.9 μM particle size, 50×2.1 mm) HPLC column was used and mobile phase was pumped at 0.5 mL/min. Elution of analytes was achieved by a series of linear gradients of acetonitrile in water containing 0.1% (v/v) formic acid. Quantification was by analyte/internal standard peak area ratio (PAR).
Protocol for Human GI S9 stability: as §2, §3

**Q.** With `Cn1ccc2c([C@@H](c3cn(C45CC(C4)C5)nn3)N(C(=O)OCOP(=O)(O)O)c3cc(Cl)c4ncc(C#N)c(NCC(C)(C)C)c4c3)cccc2c1=O` [Compound B] as the compound, how does the “AUC0-72 h of the named analyte in plasma” value [1, 3] read?
**A.** BLQ

**Q.** For `Cn1ccc2c([C@@H](c3cn(C45CC(C4)C5)nn3)N(C(=O)OCCCOP(=O)(O)O)c3cc(Cl)c4ncc(C#N)c(NCC(C)(C)C)c4c3)cccc2c1=O` [Compound C], which “AUC0-72 h of the named analyte in plasma” value ([1]; oral 3 mg/mL solution, dosed Compound C 3 mg-eq/kg) is on record?
**A.** BLQ

**Q.** What about the “in vivo conversion of dosed compound” value ([1]; oral solution of Compound C, plasma over 72 hour) of the same compound?
**A.** converted in vivo to both Compound D and Compound A in measurable amounts

**Q.** For `Cn1ccc2c([C@@H](c3cn(C45CC(C4)C5)nn3)N(C(=O)OCOP(=O)(O)O)c3cc(Cl)c4ncc(C#N)c(NCC(C)(C)C)c4c3)cccc2c1=O` [Example 1, (Phosphonooxy)methyl (S)-((1-(bicyclo[1.1.1]pentan-1-yl)-1H-1,2,3-triazol-4-yl)(2-methyl-1-oxo-1,2-dihydroisoquinolin-5-yl)methyl)(8-chloro-3-cyano-4-(neopentylamino)quinolin-6-yl)carbamate], which solubility at 2.5 h [2, 4] is on record?
**A.** > 1580 µg/mL

**Q.** And the solubility at 2.5 h [2, 5]?
**A.** > 2170 µg/mL

**Q.** What about the half-life at 2 μM (Human plasma stability) of the same compound?
**A.** 369 min

**Q.** And the half-life at 2 μM (Dog plasma stability)?
**A.** 278 min

**Q.** What about the half-life at 2 μM (Dog GI S9 stability; intestinal S9) of the same compound?
**A.** 26 min

**Q.** And the half-life at 2 μM (Human GI S9 stability; intestinal S9)?
**A.** 43 min

**Q.** What does the source list for `C[C@H](N)C(=O)OCOC(=O)N(c1cc(Cl)c2ncc(C#N)c(NCC(C)(C)C)c2c1)[C@H](c1cn(C23CC(C2)C3)nn1)c1cccc2c(=O)n(C)ccc12` [Example 2, ((((S)-(1-(bicyclo[1.1.1]pentan-1-yl)-1H-1,2,3-triazol-4-yl)(2-methyl-1-oxo-1,2-dihydroisoquinolin-5-yl)methyl)(8-chloro-3-cyano-4-(neopentylamino)quinolin-6-yl)carbamoyl)oxy)methyl L-alaninate]?
**A.** solubility at 2.5 h [2, 4]: > 1880 µg/mL; solubility at 2.5 h [2, 5]: > 1910 µg/mL; half-life at 2 μM (Human plasma stability): 14 min; half-life at 2 μM (Dog plasma stability): 3 min; half-life at 2 μM (Dog GI S9 stability; intestinal S9): 1 min; half-life at 2 μM (Human GI S9 stability; intestinal S9): < 1 min

**Q.** What does the source list for `Cn1ccc2c([C@@H](c3cn(C45CC(C4)C5)nn3)N(C(=O)OCCCOP(=O)(O)O)c3cc(Cl)c4ncc(C#N)c(NCC(C)(C)C)c4c3)cccc2c1=O` [Example 4, 3-(Phosphonooxy)propyl (S)-((1-(bicyclo[1.1.1]pentan-1-yl)-1H-1,2,3-triazol-4-yl)(2-methyl-1-oxo-1,2-dihydroisoquinolin-5-yl)methyl)(8-chloro-3-cyano-4-(neopentylamino)quinolin-6-yl)carbamate]?
**A.** solubility at 2.5 h [2, 4]: 4 µg/mL (≈ 5.16 µM); solubility at 2.5 h [2, 5]: 210 µg/mL (≈ 271 µM); half-life at 2 μM (Dog GI S9 stability; s9): 12 min; half-life at 2 μM (Human GI S9 stability; s9): 21 min

**Q.** With `Cc1nc(F)ccc1[C@@H](c1cn(C23CC(C2)C3)nn1)N(C(=O)OCOP(=O)(O)O)c1cc(C#N)c2ncc(C#N)c(NCC(C)(C)C)c2c1` [Example 6, (Phosphonooxy)methyl (S)-((1-(bicyclo[1.1.1]pentan-1-yl)-1H-1,2,3-triazol-4-yl)(6-fluoro-2-methylpyridin-3-yl)methyl)(3,8-dicyano-4-(neopentylamino)quinolin-6-yl)carbamate] as the compound, how does the half-life at 2 μM (Dog GI S9 stability; s9) read?
**A.** 14 min

**Q.** What about the half-life at 2 μM (Human GI S9 stability; s9) of the same compound?
**A.** 25 min

**Q.** Which results are given for `CC(=O)OCOC(=O)N(c1cc(C#N)c2ncc(C#N)c(NCC(C)(C)C)c2c1)[C@H](c1cn(C23CC(C2)C3)nn1)c1ccc(F)nc1C` [Example 7, (S)-((((1-(bicyclo[1.1.1]pentan-1-yl)-1H-1,2,3-triazol-4-yl)(6-fluoro-2-methylpyridin-3-yl)methyl)(3,8-dicyano-4-(neopentylamino)quinolin-6-yl)carbamoyl)oxy)methyl acetate]?
**A.** solubility at 2.5 h [2, 4]: 12 µg/mL; solubility at 2.5 h [2, 5]: 42 µg/mL; half-life at 2 μM (Human GI S9 stability; intestinal S9): 3 min

**Q.** Which results are given for `Cc1nc(F)ccc1[C@@H](c1cn(C23CC(C2)C3)nn1)N(C(=O)OCOC(=O)C1CCN(C)CC1)c1cc(C#N)c2ncc(C#N)c(NCC(C)(C)C)c2c1` [Example 8, (S)-((((1-(bicyclo[1.1.1]pentan-1-yl)-1H-1,2,3-triazol-4-yl)(6-fluoro-2-methylpyridin-3-yl)methyl)(3,8-dicyano-4-(neopentylamino)quinolin-6-yl)carbamoyl)oxy)methyl 1-methylpiperidine-4-carboxylate]?
**A.** solubility at 2.5 h [2, 4]: 77 µg/mL (≈ 105 µM); solubility at 2.5 h [2, 5]: 450 µg/mL (≈ 612 µM); half-life at 2 μM (Human plasma stability): 237 min; half-life at 2 μM (Human GI S9 stability; intestinal S9): 165 min

**Q.** What does the source list for `COC[C@@H](C)OC(=O)N(c1cc(C#N)c2ncc(C#N)c(NCC(C)(C)C)c2c1)[C@H](c1cn(C23CC(C2)C3)nn1)c1ccc(F)nc1C` [Example 9, (R)-1-methoxypropan-2-yl ((S)-(1-(bicyclo[1.1.1]pentan-1-yl)-1H-1,2,3-triazol-4-yl)(6-fluoro-2-methylpyridin-3-yl)methyl)(3,8-dicyano-4-(neopentylamino)quinolin-6-yl)carbamate]?
**A.** solubility at 2.5 h [2, 4]: 12 µg/mL (≈ 18.4 µM); solubility at 2.5 h [2, 5]: 52 µg/mL (≈ 79.8 µM); half-life at 2 μM (Human plasma stability): 1580 min; half-life at 2 μM (Human GI S9 stability; intestinal S9): 789 min

**Q.** Which half-life at 2 μM (Dog GI S9 stability; s9) does the source give for `Cc1nc(F)ccc1[C@@H](c1cn(C23CC(C2)C3)nn1)N(C(=O)OCOP(=O)(O)O)c1cc(C#N)c2ncc(C#N)c(N[C@H](C)C(C)(C)C)c2c1` [Example 10, (Phosphonooxy)methyl ((S)-(1-(bicyclo[1.1.1]pentan-1-yl)-1H-1,2,3-triazol-4-yl)(6-fluoro-2-methylpyridin-3-yl)methyl)(3,8-dicyano-4-(((R)-3,3-dimethylbutan-2-yl)amino)quinolin-6-yl)carbamate] here?
**A.** 20 min

**Q.** And the half-life at 2 μM (Human GI S9 stability; s9)?
**A.** 26 min

**Q.** For `COC[C@@H](C)OC(=O)N(c1cc(C#N)c2ncc(C#N)c(N[C@H](C)C(C)(C)C)c2c1)[C@H](c1cn(C23CC(C2)C3)nn1)c1ccc(F)nc1C` [Example 12, (R)-1-methoxypropan-2-yl ((S)-(1-(bicyclo[1.1.1]pentan-1-yl)-1H-1,2,3-triazol-4-yl)(6-fluoro-2-methylpyridin-3-yl)methyl)(3,8-dicyano-4-(((R)-3,3-dimethylbutan-2-yl)amino)quinolin-6-yl)carbamate], which half-life at 2 μM (Dog GI S9 stability; intestinal S9) is on record?
**A.** 528 min

**Q.** And the half-life at 2 μM (Human GI S9 stability; intestinal S9)?
**A.** 477 min

**Q.** For `Cc1nc(F)ccc1[C@@H](c1cn(C23CC(C2)C3)nn1)N(C(=O)C(=O)O)c1cc(C#N)c2ncc(C#N)c(N[C@H](C)C(C)(C)C)c2c1` [Example 13, 2-(((S)-(1-(bicyclo[1.1.1]pentan-1-yl)-1H-1,2,3-triazol-4-yl)(6-fluoro-2-methylpyridin-3-yl)methyl)(3,8-dicyano-4-(((R)-3,3-dimethylbutan-2-yl)amino)quinolin-6-yl)amino)-2-oxoacetic acid], which half-life at 2 μM (Dog GI S9 stability; intestinal S9) is on record?
**A.** 789 min

**Q.** What about the half-life at 2 μM (Human GI S9 stability; intestinal S9) of the same compound?
**A.** 789 min

**Q.** With `Cn1ccc2c([C@@H](c3cn(C45CC(C4)C5)nn3)N(C(=O)OCO)c3cc(Cl)c4ncc(C#N)c(NCC(C)(C)C)c4c3)cccc2c1=O` [Intermediate A] as the compound, how does the “AUC0-72 h of the named analyte in plasma” value [1, 3] read?
**A.** BLQ
